Data set [1] can be described thus: Lipophilicity determination by RP-HPLC (capacity factor, log k). The format is physicochemical. The settings on record: end-capped C18, isocratic MeOH 60%/H2O 40%. As to the method: Lipophilicity is a property that has a major effect on bioavailability, biotransformation as well as pharmacological activity, because drugs cross biological membranes through passive transport, which strongly depends on their lipophilicity. Lipophilicity of the studied compounds was determined by RP‑HPLC as capacity factor logarithm (log k). The procedure was performed under isocratic conditions with methanol as an organic modifier in the mobile phase using an end-capped non-polar C18 stationary RP column. The results of ring-substituted naphthalene-1-carboxanilides 1–8c are shown in Table 1 and illustrated in Figure 1. […] Lipophilicity was also calculated as log P using ACD/Percepta ver. 2012 (Advanced Chemistry Development, Inc., Toronto, ON, Canada).
A HPLC system Agilent 1200 equipped with DAD detector (Agilent, USA) was used. A chromatographic column Symmetry® C18 5 μm, 4.6 × 250 mm, Part No. WAT054275 (Waters Corp., Milford, MA, USA) was used. The HPLC separation process was monitored and evaluated by EZChrom Elite software ver. 3.3.2 (Agilent, USA). Isocratic elution by a mixture of MeOH p.a. (60%) and H2O-HPLC Mili-Q grade (40%) as a mobile phase was used. The total flow of the column was 1.0 mL/min, injection 20 μL, column temperature 40 °C, and sample temperature 10 °C. The detection wavelength 210 nm was chosen. The KI methanolic solution was used for the dead time (tD) determination. Retention times (tR) were measured in minutes. The capacity factors k were calculated according to formula k = (tR − tD)/tD, where tR is the retention time of the solute, whereas tD denotes the dead time obtained using an unretained analyte. Log k, calculated from the capacity factor k, is used as the lipophilicity index converted to log P scale.

A short description of a further data set: physchem. To be noted: aqueous buffer, kinetic from dmso stock.
Data set [2] relates to photosynthetic electron transport (PET) in isolated spinach chloroplasts. The data set can be described thus: Inhibition of photosynthetic electron transport (PET) in isolated spinach chloroplasts. The settings on record: DCPIP photoreduction. The data set is classed as biochemical, Spinacia oleracea L. How it is done: The PET-inhibiting activity was expressed by IC50 value, i.e., compound concentration in mol/L causing 50% inhibition of PET.
Chloroplasts were prepared from spinach (Spinacia oleracea L.) according to Masarovicova and Kralova. The inhibition of photosynthetic electron transport (PET) in isolated spinach chloroplasts was determined spectrophotometrically (Genesys 6, Thermo Scientific, USA), using an artificial electron acceptor 2,6-dichlorophenol-indophenol (DCIPP) according to Kralova et al., and the rate of photosynthetic electron transport was monitored as a photoreduction of DCPIP. The measurements were carried out in phosphate buffer (0.02 mol/L, pH 7.2) containing sucrose (0.4 mol/L), MgCl2 (0.005 mol/L) and NaCl (0.015 mol/L). The chlorophyll content was 30 mg/L in these experiments and the samples were irradiated (~100 W/m^2 with 10 cm distance) with a halogen lamp (250 W) using a 4 cm water filter to prevent warming of the samples (suspension temperature 22 °C). The studied compounds were dissolved in DMSO due to their limited water solubility. […] The inhibitory efficiency of the studied compounds was expressed by IC50 values, i.e., by molar concentration of the compounds causing 50% decrease in the oxygen evolution rate relative to the untreated control.

The test system of data set [3] is Mycobacterium avium subsp. paratuberculosis CIT03. The data set is described as follows: In vitro antimycobacterial evaluation (MIC/IC90, alamarBlue). The format is cell-based. The settings on record: for MIC: Mycobacterium avium. How it is done: The MIC/IC90 value is routinely and widely used in bacterial assays and is a standard detection limit according to the Clinical and Laboratory Standards Institute.
A well-characterized clinical isolate of Mycobacterium avium subsp. paratuberculosis (CIT03) was grown in Middlebrook broth (MB), supplemented with Oleic-Albumin-Dextrose-Catalase supplement (OADC, Becton, Dickinson and Comp., Franklin Lakes, NJ, USA) and mycobactin J (2 µg/mL). Identification of this isolate was performed using biochemical and molecular protocols. At log phase growth, a culture sample (10 mL) was centrifuged at 15,000 rpm/20 min using a bench top centrifuge (Model CR 4-12, Jouan Inc., Winchester, VA, USA). Following removal of the supernatant, the pellet was washed in fresh Middlebrook 7H9GC broth and re-suspended in fresh supplemented MB (10 mL). The turbidity was adjusted to match McFarland standard No. 1 (3 × 10^8 cfu) with MB broth. A further 1:20 dilution of the culture was then performed in MB broth. The antimicrobial susceptibility of the mycobacterial species was investigated in a 96-well plate format. In these experiments, sterile deionized water (300 µL) was added to all outer-perimeter wells of the plates to minimize evaporation of the medium in the test wells during incubation. Each evaluated compound (100 µL) was incubated with the mycobacterial species (100 µL). Dilutions of each compound were prepared in duplicate. For all synthesized compounds, final concentrations ranged from 1,000 µg/mL to 8 µg/mL. All compounds were prepared in DMSO and subsequent dilutions were made in supplemented MB. The plates were sealed with parafilm and incubated at 37 °C for 11 days.
Following incubation, a 10% addition of alamarBlue (AbD Serotec, Kidlington, UK) was mixed into each well and readings at 570 nm and 600 nm were taken, initially for background subtraction and subsequently after 24 h re-incubation. […] For non-interfering compounds, a blue colour in the well was interpreted as an absence of growth and a pink colour was scored as growth. Furthermore percent reduction of alamarBlue was calculated to generate quantitative data on cell viability during exposure to antimycobacterial compounds over a period of 5 days. The formula used to determine percent reduction of alamarBlue has been standardized for colorimetric analysis by Abd Serotec.
The MIC value is routinely and widely used in bacterial assays and is a standard detection limit according to the Clinical and Laboratory Standards Institute.
For orientation: The colour change of resazurin is a common sign of viable cells or microbes.

Data set [4] concerns M. avium subsp. paratuberculosis. The data set is described as follows: MTT assay on mycobacteria. The data set is classed as cell-based, Mycobacterium avium subsp. paratuberculosis. To be noted: lowest tested concentration 8 µg/mL (ca. 30 µmol/L), four hours of incubation. As to the method: Additionally, a standard MTT assay was performed on these same compounds. The MTT assay is a well-characterized method of assessing cell growth through measurement of respiration.
For the MTT assay, the same 96-well plate set up and incubation conditions listed above were used. After the incubation period, a 10% addition of MTT reagent was mixed into each well and incubated at 37 °C for 4 h. The reagent and media were then aspirated from the wells to which 50 µL DMSO was then added and plates were read at 550 nm.

[5] abbreviates: M. avium subsp. paratuberculosis, comparison of MICs.

Like-named read-outs stand apart in the source and are kept apart here. Bounds are passed on as bounds.

The record followed here is publication PMC6270837, “Preparation and Biological Properties of Ring-Substituted Naphthalene-1-Carboxanilides” (Molecules, 2014).

For `Cc1ccc(NC(=O)c2cccc3ccccc23)cc1` [Compound 3c, N-(4-Methylphenyl)naphthalene-1-carboxamide], the log k in data set [1] is on record as 0.7551. For the same compound, the solubility (as a rule, how much of the substance goes into solution per volume) in “physchem” is no more than 30 µM. Also, the IC50 (usually the concentration at which inhibition is half-maximal) in data set [2] worked out at 381 µM. The “antimycobacterial activity relative to ciprofloxacin” value in data set [3] (setting [5]) is “three-fold higher”. Besides, the “antimycobacterial activity relative to rifampicin” value in data set [3] (setting [5]) was “two-fold higher”. Further, the MIC came to 57 µM in data set [3] (264 h, clinical isolate CIT03, 11 days at 37 °C, alamarBlue, MIC = 90% or greater reduction of growth, read-out: MAP MIC/IC90) and 15 mg/L in data set [3] (clinical isolate CIT03, read-out: MIC). In data set [3] (clinical isolate CIT03, 11 days at 37 °C, alamarBlue, MIC = 90% or greater reduction of growth), the “MAP MIC/IC90” value is 57 µM. Moreover, the “reduction in activity (MTT)” value in data set [4] is reported as “more than 80%”.
